From US8030494B2, “Optical recording material” (Adeka Corporation, priority 2006, dated 2011)

Experiment: Evaluation of light resistance (absorbance retention of spin-coated film after irradiation)
Type: physicochemical
Settings: film spin-coated from 1% by mass 2,2,3,3-tetrafluoropropanol solution on polycarbonate plate; 55000 lux light for 100 hours; at λmax before irradiation
Procedure: The compounds obtained in Preparation Examples 1 to 8 and comparative compound No. 2 were evaluated for light resistance as follows. Each of the compounds was dissolved in 2,2,3,3-tetrafluoropropanol to prepare a 1% by mass solution. The solution was applied to a 20 mm by 20 mm polycarbonate plate by spin coating at 2000 rpm for 60 seconds to prepare a specimen. The specimen was irradiated with 55000 lux light for 100 hours. The UV absorption spectra measured before and after the irradiation were compared to calculate an absorbance retention at the λmax of the UV absorption spectrum before the irradiation.

**Q.** Which “Absorbance Retention (%)” value does the source give for `C[N+]1=C(/C=C/c2ccccc2)C(C)(Cc2ccccc2)c2c1ccc1ccccc21` (stereo not shown) [comparative compound No. 2] here?
**A.** 0%
